IC50 data for 2 compounds are collected here from ChEMBL document CHEMBL1201862, “PubChem BioAssay data set” (2004).

Calls of active or inactive are those of the source. Rule as the data show it: actives have a measured IC50 and inactives only a lower limit.

The target of this assay is Envelope glycoprotein gp160 (Human immunodeficiency virus 1, UniProt Q6QLK5). Put plainly: cell-free HIV fusion peptide-binding blockers – biochemical, uHTS, fluorescence dequenching, […] (AID 1986).
Sequence of Envelope glycoprotein gp160 (Q6QLK5 whole entry, the tested form may be a part): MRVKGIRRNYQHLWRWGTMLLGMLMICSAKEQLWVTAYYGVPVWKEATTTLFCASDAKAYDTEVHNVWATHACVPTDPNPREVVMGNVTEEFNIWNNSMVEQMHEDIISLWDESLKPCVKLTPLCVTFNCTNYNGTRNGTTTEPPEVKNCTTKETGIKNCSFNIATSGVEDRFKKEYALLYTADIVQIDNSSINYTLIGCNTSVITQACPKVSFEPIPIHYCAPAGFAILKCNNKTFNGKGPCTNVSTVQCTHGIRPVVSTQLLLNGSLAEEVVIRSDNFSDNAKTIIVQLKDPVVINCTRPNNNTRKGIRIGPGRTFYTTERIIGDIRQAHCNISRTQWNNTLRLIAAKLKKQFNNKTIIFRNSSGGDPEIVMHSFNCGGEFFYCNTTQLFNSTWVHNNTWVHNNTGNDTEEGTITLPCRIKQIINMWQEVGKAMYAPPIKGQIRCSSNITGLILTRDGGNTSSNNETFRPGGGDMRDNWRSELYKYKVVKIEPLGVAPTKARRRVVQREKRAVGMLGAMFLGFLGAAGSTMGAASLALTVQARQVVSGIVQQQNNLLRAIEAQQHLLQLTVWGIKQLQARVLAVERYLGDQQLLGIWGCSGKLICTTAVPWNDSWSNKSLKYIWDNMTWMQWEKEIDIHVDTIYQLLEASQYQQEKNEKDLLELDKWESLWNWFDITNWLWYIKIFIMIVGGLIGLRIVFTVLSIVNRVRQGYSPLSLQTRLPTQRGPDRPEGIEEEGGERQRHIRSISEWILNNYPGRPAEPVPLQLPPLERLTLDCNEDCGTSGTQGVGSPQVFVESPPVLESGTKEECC

For `COc1ccc(-c2nn(-c3ccccc3)cc2/C=C\C(=O)Nc2ccc(C(=O)O)cc2)cc1`, the half-maximal inhibitory concentration (IC50) (as a rule, the concentration that gives 50% inhibition) is 18.3 µM (active). The result for `CC1=C(C(=O)Nc2ccccc2)C(c2ccc(Cl)cc2)n2c(s/c(=C/c3cccc(OCC(=O)O)c3)c2=O)=N1` (configuration not stated) reads 16.8 µM (active).
